The record followed here is patent EP0017970A1, “Novel beta-lactam derivatives and process for production thereof” (SANRAKU-OCEAN CO., LTD., priority 1979, dated 1980).

In brackets after ≈: the same amount, converted by molar mass. A value given as a limit tells only on which side of the number the result lay.

Common to all, as to assay: MIC, agar dilution assay
Format in all cases: cell-based
For orientation: In agar dilution the substance is mixed into plates at graded concentrations.

One assay relates to Alcaligenes faecalis A 1. As to conditions: Alcaligenes faecalis, A1, 20 h, 35°C for 20 hours, read-out: Antibiotic Activity minimum inhibitory concentration. As to the method:
(§1) The antibiotic activities shown in Tables 1-1 to 1-9 above were determined in the following manner. The minimum inhibitory concentrations of the compounds of formula (VI-b) in Tables I-1 to 1-8 and the known compounds in Table 1-9 on the various microorganisms shown in the above tables were measured by an agar dilution assay method using a brain heart infusion agar medium "Difco" (a product of Difco Laboratories Inc.). A sample of the test compound was dissolved in sterile distilled water and diluted to prepare a twofold dilution series of the compound solution. In a betri dish of 9 cm in diameter, 1 ml of the compound solution was added to 9 ml of a molten sterile heart infusion agar medium (Difco Laboratories Inc.) at. about 60°C to prepare an agar plate containing the compound. An overnight culture of each test organism indicated in the above table, which was prepared by stationary cultivation in trypto-soy broth (Eiken Chemi. Co., Ltd.) at 35°C for 18 to 20 hours, was diluted with the trypto-soy broth to give approximately 10^8 cells/ml and the diluted inoculum was inoculated in the agar plate. After cultivating the plate at 35°C for 20 hours, the growth of the organism was observed. The minimum concentration of the compound at which no growth of the microorganism was noted was determined, and defined as the minimum inhibitory concentration of the test compound.

Assay [1] has as its system Bacillus subtilis ATCC 6633. The settings on record: Bacillus subtilis, ATCC6633, 20 h, 35°C for 20 hours, read-out: Antibiotic Activity minimum inhibitory concentration. As to the method: as §1
Assay [2] concerns Citrobacter freundii GN 346. The settings on record: GN346, 20 h, 35°C for 20 hours, read-out: Antibiotic Activity minimum inhibitory concentration. The protocol:
as §1

Assay [3] relates to Comamonas terrigena B-996. The settings on record: Comamonas terrigena, B996, 20 h, 35°C for 20 hours, read-out: Antibiotic Activity minimum inhibitory concentration. The protocol:
as §1

Assay [4] concerns Enterobacter aerogenes E19. The settings on record: Klebsiella aerogenes, E19, 20 h, 35°C for 20 hours, read-out: Antibiotic Activity minimum inhibitory concentration. As to the method:
as §1

The next assay has as its system Enterobacter cloacae 45. As to conditions: Enterobacter cloacae, 45, 20 h, 35°C for 20 hours, read-out: Antibiotic Activity minimum inhibitory concentration. The protocol: as §1
For another assay, the system named is Enterobacter sp. E8. As to conditions: Enterobacter, SP.E8, 20 h, 35°C for 20 hours, read-out: Antibiotic Activity minimum inhibitory concentration. The protocol:
as §1

The test system of the next assay is Escherichia coli K-12. As to conditions: Escherichia coli, K12, 20 h, 35°C for 20 hours, read-out: Antibiotic Activity minimum inhibitory concentration. As to the method: as §1
The next assay deals with Escherichia coli RGN 823. As to conditions: RGN823, 20 h, 35°C for 20 hours, read-out: Antibiotic Activity minimum inhibitory concentration. As to the method:
as §1

The subject of assay [5] is Klebsiella pneumoniae K-13. The settings on record: K13, 35°C for 20 hours, read-out: Antibiotic Activity minimum inhibitory concentration. The protocol: as §1
Another assay deals with Proteus mirabilis P6. The settings on record: P6, 20 h, 35°C for 20 hours, read-out: Antibiotic Activity minimum inhibitory concentration. The protocol: as §1
For a further assay, the system named is Proteus rettgeri P7. As to conditions: Providencia rettgeri, P7, 20 h, 35°C for 20 hours, read-out: Antibiotic Activity minimum inhibitory concentration. The protocol:
as §1

A further assay deals with Proteus sp. P22. The settings on record: 35°C for 20 hours, read-out: Antibiotic Activity minimum inhibitory concentration. As to the method: as §1
The test system of a further assay is Proteus vulgaris GN76. The settings on record: 35°C for 20 hours, read-out: Antibiotic Activity minimum inhibitory concentration. The protocol: as §1
The next assay deals with Providencia sp. P8. The settings on record: Providencia, SP.P8, 20 h, 35°C for 20 hours, read-out: Antibiotic Activity minimum inhibitory concentration. As to the method:
as §1

For assay [6], the system named is Pseudomonas aeruginosa IFO3445. As to conditions: 35°C for 20 hours, read-out: Antibiotic Activity minimum inhibitory concentration. The protocol:
as §1

Assay [7] concerns Pseudomonas aeruginosa NCTC10490. The settings on record: 35°C for 20 hours, read-out: Antibiotic Activity minimum inhibitory concentration. As to the method:
as §1

In a further assay the test system is Sarcina lutea. As to conditions: Micrococcus luteus, 20 h, 35°C for 20 hours, read-out: Antibiotic Activity minimum inhibitory concentration. The protocol:
as §1

In another assay the test system is Serratia marcescens S18. As to conditions: Serratia marcescens, S18, 20 h, 35°C for 20 hours, read-out: Antibiotic Activity minimum inhibitory concentration. As to the method:
as §1

The next assay concerns Serratia marcescens T55. The settings on record: Serratia marcescens, T55, 20 h, 35°C for 20 hours, read-out: Antibiotic Activity minimum inhibitory concentration. The protocol:
as §1

Assay [8] has as its system Staphylococcus aureus FDA 209P. The settings on record: Staphylococcus aureus, FDA209P, 20 h, 35°C for 20 hours, read-out: Antibiotic Activity minimum inhibitory concentration. As to the method: as §1
Assay [9] has as its system Staphylococcus aureus Russell. The settings on record: Staphylococcus aureus, 20 h, 35°C for 20 hours, read-out: Antibiotic Activity minimum inhibitory concentration. The protocol: as §1
The subject of assay [10] is Staphylococcus aureus Smith. The settings on record: Staphylococcus aureus, 20 h, 35°C for 20 hours, read-out: Antibiotic Activity minimum inhibitory concentration. The protocol: as §1
For assay [11], the system named is Staphylococcus epidermidis. The settings on record: 20 h, 35°C for 20 hours, read-out: Antibiotic Activity minimum inhibitory concentration. The protocol:
as §1

Consider `CCC1C(=O)N2C(C(=O)O)=C(Sc3ccncc3)CC12` (centres unmarked) [Table I-1 R1=H], for which the MIC with Alcaligenes faecalis A 1 was under 0.007 µg/mL; in assay [1] it was under 0.007 µg/mL; in assay [2], 29.5 µg/mL (≈ 102 µM); in assay [3] it was under 0.007 µg/mL; in [4], 7.4 µg/mL (≈ 25.5 µM); in the assay with Enterobacter cloacae 45, 29.5 µg/mL (≈ 102 µM). In addition, the MIC in the assay with Enterobacter sp. E8 was determined as 0.46 µg/mL (≈ 1.58 µM); with Escherichia coli K-12 it was 0.92 µg/mL (≈ 3.17 µM); in the assay on Escherichia coli RGN 823, 14.8 µg/mL (≈ 51 µM); in [5], 14.8 µg/mL (≈ 51 µM); in the assay on Proteus mirabilis P6 it was 1.8 µg/mL (≈ 6.2 µM); in the assay with Proteus rettgeri P7, 1.8 µg/mL (≈ 6.2 µM). For the same compound, the MIC in the assay with Proteus sp. P22 was 29.5 µg/mL (≈ 102 µM); with Proteus vulgaris GN76, 29.5 µg/mL (≈ 102 µM); in the assay with Providencia sp. P8, 0.92 µg/mL (≈ 3.17 µM); in [6], 0.92 µg/mL (≈ 3.17 µM); in [7] it was 0.92 µg/mL (≈ 3.17 µM); in the assay on Sarcina lutea, under 0.007 µg/mL. The MIC in the assay with Serratia marcescens S18 was 29.5 µg/mL (≈ 102 µM); with Serratia marcescens T55, 29.5 µg/mL (≈ 102 µM); in assay [8], under 0.007 µg/mL; in assay [9], under 0.007 µg/mL; in [10], under 0.007 µg/mL; in assay [11], under 0.007 µg/mL.

Consider `CC(C)C1C(=O)N2C(C(=O)O)=C(Sc3ccccn3)CC12` (centres unmarked) [Table I-2 R1=-CH3], for which the MIC with Alcaligenes faecalis A 1 is 0.2 µg/mL (≈ 0.657 µM); in assay [1], 0.05 µg/mL (≈ 0.164 µM); in assay [2] it was 50 µg/mL (≈ 164 µM); in assay [3], 0.007 µg/mL (≈ 0.023 µM); in [4], 50 µg/mL (≈ 164 µM); in the assay with Enterobacter cloacae 45 it was over 100 µg/mL. Further, the MIC in the assay on Enterobacter sp. E8 was 25 µg/mL (≈ 82.1 µM); with Escherichia coli K-12 it was 12.5 µg/mL (≈ 41.1 µM); in the assay on Escherichia coli RGN 823 it was 12.5 µg/mL (≈ 41.1 µM); in assay [5], 50 µg/mL (≈ 164 µM); in the assay with Proteus mirabilis P6, 6.25 µg/mL (≈ 20.5 µM); in the assay with Sarcina lutea, 0.004 µg/mL (≈ 0.0131 µM). The MIC in assay [8] is 0.007 µg/mL (≈ 0.023 µM); in assay [9], 0.013 µg/mL (≈ 0.0427 µM); in assay [10], 0.013 µg/mL (≈ 0.0427 µM); in assay [11], 0.05 µg/mL (≈ 0.164 µM).

Consider `CCC1C(=O)N2C(C(=O)O)=C(Sc3ccccn3)CC12` (centres unmarked) [Table I-2 R1=H], for which the MIC in the assay with Alcaligenes faecalis A 1 is 0.1 µg/mL (≈ 0.344 µM); in [1] it was 0.012 µg/mL (≈ 0.0413 µM); in assay [2], 25 µg/mL (≈ 86.1 µM); in [3], 0.003 µg/mL (≈ 0.0103 µM); in [4], 25 µg/mL (≈ 86.1 µM); with Enterobacter cloacae 45, 50 µg/mL (≈ 172 µM). In addition, the MIC with Enterobacter sp. E8 was 12.5 µg/mL (≈ 43.1 µM); in the assay on Escherichia coli K-12, 6.25 µg/mL (≈ 21.5 µM); in the assay with Escherichia coli RGN 823, 6.25 µg/mL (≈ 21.5 µM); in [5], 25 µg/mL (≈ 86.1 µM); in the assay on Proteus mirabilis P6, 3.13 µg/mL (≈ 10.8 µM); in the assay on Sarcina lutea it was 0.0008 µg/mL (≈ 0.00276 µM). The MIC was 0.006 µg/mL (≈ 0.0207 µM) in assay [8], 0.012 µg/mL (≈ 0.0413 µM) in assay [9], 0.012 µg/mL (≈ 0.0413 µM) in assay [10] and 0.012 µg/mL (≈ 0.0413 µM) in assay [11].
